The test system of experiment [1] is carrageenan-induced paw edema in rats. The experiment in a line: Carrageenan-induced paw edema model of inflammation. The format is in vivo. The note with it: 2 hr, rat, read-out: Carrageenan ind. paw edema % Inhib. 2 hr; for inhibition in vivo at 20 mg/kg: 20 mg/Kg ip.
The target of experiment [2] is T1, PLA2 activity in human synovial fluid (HSF) (Homo sapiens, UniProt P14555).
T1 construct: Synovial fluid was obtained from patients with rheumatoid arthritis; from tissue; host or cells: cell-depleted synovial fluid of patients with rheumatoid arthritis
T1 sequence (P14555 21-144): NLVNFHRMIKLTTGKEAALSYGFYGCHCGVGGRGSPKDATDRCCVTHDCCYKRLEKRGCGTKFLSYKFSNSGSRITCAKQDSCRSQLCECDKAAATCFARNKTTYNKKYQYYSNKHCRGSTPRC
Kind of experiment: Phospholipase A2 (PLA2) enzymatic assay - % Inhibition of HSF-PLA2. The format is biochemical. The note with it: for inhibition at 5 µM: read-out: % Inhib. of HSF-PLA2 at 5 μM. The text has this: 1, Phospholipase A2 (PLA2) enzymatic assay - % Inhibition of HSF-PLA2
PLA2 assay procedure described by Hope et al., Inflammation 14:543-559 (1.990) was utilized to measure the inhibitory activity of the invention (inhibitor) against PLA2 activity in human synovial fluid (HSF). Synovial fluid was obtained from patients with rheumatoid arthritis. The assay procedure measured the release of [1-^14 C]oleic acid from the sn-2 position of phospholipids in autoclaved Escherichia coli previously grown in media containing [1-^14 C]oleic acid. The standard assay reaction conditions included 1×10^9 Escherichia coil (10,000 dpm ^14 C), 0.15% (v/v) cell-depleted HSF, (which was equivalent to 66 μg protein/mL) 2 mM CaCl2, 150 mM NaCl, 50 mM sodium (N-[2-hydroxyethyl] piperazine-N'-[2-ethanesulfonate]) (HEPES) buffer (pH 7.3), 1% dimethyl sulfoxide (DMSO) and various concentrations of inhibitor in a total volume of 0.5 ml. Inhibitors were dissolved in DMSO and added. The reaction was initiated by addition of HSF, incubated for 30 min at 37° C. and then stopped by addition of 2.5 ml of chloroform/methanol (1:1.5, v/v). The total lipids were extracted by the method of Bligh, E. G., and Dyer, W. J, Can. J. Biochem. Physiol. 37:911-917 (1959) by the further addition of 0.5 mL of chloroform and 1 mL of water with mixing. The lipid extract was redissolved in chloroform/methanol (9:1, v/v) containing 10 ug of carrier oleic acid. The oleic acid was separated from phospholipids by thin layer chromatography using gel-impregnated glass fiber sheets (ITLC type SG sheets). The sheets were preactivated by heating at 110° C. for 30 min. The lipid extract was applied to the sheets and chromatographed for 6 minutes, using hexane/acetic acid (100:1, v/v). The positions on the sheet containing oleic acid and phospholipids were visualized by exposure to iodine vapor and located by comparison to standards. The oleic acid and phospholipid zones were cut from the sheets, shaken individually with 2 ml of ethanol/water (80:20, v/v) and 15 ml of Aquasol, then counted for [^14 C] radioactivity (dpm). PLA2 activity, expressed as percent hydrolysis, was calculated from the formula: [formula] and was corrected for nonenzymatic hydrolysis of the substrate. Percent inhibition due to the presence of drug was calculated from the formula: [formula]
When various concentrations of a Compound of Formula I were tested, the percent inhibition at each concentration was plotted as log concentration (abscissa) versus percent inhibition (ordinate) and the IC50 was determined from this plot.

In experiment [3] the test system is cellular PLA2. Kind of experiment: Inhibition of Cellular Phospholipase A2 (A23187-stimulated macrophages). The format is cell-based. The note with it: 5 μM; rat peritoneal macrophages, A-23187 stimulated. As for the experimental part:
II. Inhibition of Cellular Phospholipase A2. - % Inhibition of Cellular PLA2
Resident macrophages were obtained from rats by peritoneal lavage with phosphate buffered saline minus Ca2^++ and Mg2^++ (PBS). Cells were washed 3 times with PBS and resuspended in Dulbecco's Modified Eagle's Medium (GiBco) containing L-glutamine low D-glucose (1000 mg/L), and sodium pyruvate (110 mg/L), supplemented with 10% fetal calf serum. Cells were counted on a Coulter ZBI cell counter and then resuspended to a concentration of 6×10^6 cells/1.5 ml. The cell suspension (1.5 ml culture dishes (35 mm) and the cells were allowed to adhere to the dishes for 90 minutes at 37° C. Dishes were washed 3 times with PBS to remove non-adherent cells. [^14 C]arachidonic acid ([^14 C]-AA, approximately […], were added to the cells (1 uCi/dish) and allowed to incorporate for 120 minutes. Medium containing unincorporated [^14 C]-AA was removed and the cell layer was again washed 3 times with PBS. Inhibitors were dissolved in dimethylsulfoxide (DMSO) and added directly to the macrophages in Hank's Balanced Salt Solution (GiBco) phosphate-buffered, pH 7.4) to obtain the desired final concentration. Cells were incubated with drug or DMSO for 30 minutes at 37° C. and were then stimulated with calcium-ionophore A-23187 (0.75 uM) for 20 minutes. The extracellular medium was removed and the [^14 C] radioactivity released into this medium from AA metabolism was measured by liquid scintillation spectroscopy. The amounts of LTB4 and PGE2 were measured in the extracellular medium by radio immunoassay with specific antisera. The effects of inhibitor were measured as percent inhibition of A23187- stimulated AA metabolite release (^14 C release, PGE2 and LTB4 production) (control) which were calculated from the formula: [formula] IC50 's were calculated as described in the HSF-PLA2 assay.

pIC50: −log10 of the molar value.

For the compound `CC(C)CCCC(C)CCn1c2c(c3cc(Oc4ccc(C(=O)O)o4)ccc31)CCCC2` (racemic) [Example 144, rac-5-[[1,2,3,4-tetrahydro-9-(3,7-dimethyloctyl)-9H-dibenzo[b,d]pyrrol-6-yl]oxy]-2-furancarboxylic acid], the inhibition in vivo at 30 mg/kg in experiment [1] (30 mg/Kg ip) is 80%. Further, in experiment [2], the inhibition at 5 µM amounted to 78%. The “% Inhib. of cellular PLA2 at 5 μM” value in experiment [3] is recorded as 87%.
Compound `CCCCCCCCn1c2c(c3cc(Oc4ccc(C(=O)O)o4)ccc31)CCCC2c1cccc(OC)c1` (racemic) [Example 153, rac-5-[[1,2,3,4-tetrahydro-1-(3-methoxyphenyl)-9-octyl-9H-dibenzo[b,d]pyrrol-6-yl]oxy]-2-furancarboxylic acid] showed a pIC50 in experiment [2] (human synovial fluid PLA2, 30 min at 37° C., pH 7.3) of 5.62. Also, the inhibition at 5 µM in experiment [2] came out at 63%. For the same compound, the “% Inhib. of cellular PLA2 at 5 μM” value in experiment [3] stood at 74%.
Take `CCCCCCCCn1c2c(c3cc(/C=C/c4ccc(C(=O)O)o4)ccc31)C(C)(C)CC(C)(C)C2` [Example 46, (E)-5-[2-(1,2,3,4-tetrahydro-2,2,4,4-tetramethyl-9-octyl-9H-dibenzo[b,d]pyrrol-6-yl)ethenyl]-2-furancarboxylic acid]: the inhibition at 5 µM in experiment [2] was determined as 75%. In addition, in experiment [3], the “% Inhib. of cellular PLA2 at 5 μM” value worked out at 48%.
Take `CCCCCCCCn1c2c(c3cc(/C(C)=C/c4ccc(C(=O)O)o4)ccc31)CCCC2` [Example 47, (E)-5-[2-methyl-2-(1,2,3,4-tetrahydro-9-octyl-9H-dibenzo[b,d]pyrrol-6-yl)ethenyl]-2-furancarboxylic acid]: the inhibition in vivo at 20 mg/kg in experiment [1] amounted to 70%. Also, in experiment [1] (100 mg/Kg po), the inhibition in vivo at 100 mg/kg is 49%. Further, the inhibition at 5 µM in experiment [2] amounted to 59%. The “% Inhib. of cellular PLA2 at 5 μM” value in experiment [3] came to 77%.
For the compound `CCCCCCCCn1c2c(c3cc(/C(C)=C/c4ccc(C(=O)O)o4)ccc31)CCCC2(C)C` [Example 48, (E)-5-[2-methyl-2-(1,2,3,4-tetrahydro-1,1-dimethyl-9-octyl-9H-dibenzo[b,d]-pyrrol-6yl)ethenyl]-2-furancarboxylic acid], the inhibition in vivo at 10 mg/kg in experiment [1] (10 mg/Kg ip) is 58%. Further, in experiment [2], the inhibition at 5 µM is 75%. Besides, in experiment [3], the “% Inhib. of cellular PLA2 at 5 μM” value is on record as 62%.
On to `CCCCCCCCn1c2c(c3cc(/C(C)=C/c4ccc(C(=O)O)o4)ccc31)C(C)(C)CC(C)(C)C2` [Example 49, (E)-5-[2-methyl-2-(1,2,3,4-tetrahydro-2,2,4,4-tetramethyl-9-octyl-9H-dibenzo[b,d]pyrrol-6yl)ethenyl]-2-furancarboxylic acid], for which the inhibition at 5 µM in experiment [2] came to 83%. Moreover, in experiment [3], the “% Inhib. of cellular PLA2 at 5 μM” value is given as 15%.
Consider `CCCCCCCCn1c2c(c3cc(/C=C(\C)c4ccc(C(=O)O)o4)ccc31)CCCC2` [Example 50, (E)-5-[1-methyl-2-(1,2,3,4-tetrahydro-9-octyl-9H-dibenzo[b,d]-pyrrol-6-yl)ethenyl]-2-furancarboxylic acid], for which the inhibition in vivo at 20 mg/kg in experiment [1] came to 56%. Moreover, in experiment [2], the inhibition at 5 µM turned out to be 47%. Also, the “% Inhib. of cellular PLA2 at 5 μM” value in experiment [3] was found to be 79%.
Turning to `CCCCCCCCn1c2c(c3cc(Oc4ccc(C(=O)O)o4)ccc31)CC(C)(C)CC2` [Example 135, 5-[(1,2,3,4-tetrahydro-3,3-dimethyl-9-octyl-9H-dibenzo[b,d]pyrrol-6-yl)oxy]-2-furancarboxylic acid], the inhibition at 5 µM in experiment [2] was found to be 66%. The “% Inhib. of cellular PLA2 at 5 μM” value in experiment [3] was 90%.
With `CCCCn1c2c(c3cc(Oc4ccc(C(=O)O)o4)ccc31)CCCC2` [Example 136, 5-[(1,2,3,4-tetrahydro-9-butyl-9H-dibenzo[b,d]pyrrol-6-yl)oxy]-2-furancarboxylic acid], the inhibition at 5 µM in experiment [2] was determined as 12%. In experiment [3], the “% Inhib. of cellular PLA2 at 5 μM” value is 85%.
With `O=C(O)c1ccc(Oc2ccc3c(c2)c2c(n3Cc3ccc(Br)cc3)CCCC2)o1` [Example 137, 5-[[1,2,3,4-tetrahydro-9-(4-bromophenyl)methyl-9H-dibenzo[b,d]pyrrol-6-yl]oxy]-2-furancarboxylic acid], in experiment [2], the inhibition at 5 µM came to 36%. Moreover, the “% Inhib. of cellular PLA2 at 5 μM” value in experiment [3] is reported as 100%.
Regarding `Cn1c2c(c3cc(Oc4ccc(C(=O)O)o4)ccc31)CCCC2` [Example 138, 5-[(1,2,3,4-tetrahydro-9-methyl-9H-dibenzo[b,d]pyrrol-6-yl)oxy]-2-furancarboxylic acid], the inhibition at 5 µM in experiment [2] was 39%. Further, in experiment [3], the “% Inhib. of cellular PLA2 at 5 μM” value was found to be 13%.
For `CCCCCCCn1c2c(c3cc(Oc4ccc(C(=O)O)o4)ccc31)CCCC2` [Example 140, 5-[(1,2,3,4-tetrahydro-9-heptyl-9H-dibenzo[b,d]pyrrol-6-yl)oxy]-2-furancarboxylic acid], in that order: 55% and 97%.
For `CCCCCCCCCCCCn1c2c(c3cc(Oc4ccc(C(=O)O)o4)ccc31)CCCC2` [Example 141, 5-[(1,2,3,4-tetrahydro-9-dodecyl-9H-dibenzo[b,d]pyrrol-6-yl)oxy]-2-furancarboxylic acid], in that order: 66% and 74%.
The corresponding values for `CCCCCCCc1ccc(Cn2c3c(c4cc(Oc5ccc(C(=O)O)o5)ccc42)CCCC3)cc1` [Example 143, 5-[[1,2,3,4-tetrahydro-9-(4-heptylphenyl)methyl-9H-dibenzo[b,d]pyrrol-6-yl]oxy]-2-furancarboxylic acid] are 76% and 65%.
Consider `O=C(O)c1ccc(Oc2ccc3c(c2)c2c(n3Cc3ccccc3F)CCCC2)o1` [Example 148, 5-[[1,2,3,4-tetrahydro-9-[(2-fluorophenyl)methyl]-9H-dibenzo[b,d]pyrrol-6-yl]oxy]-2-furancarboxylic acid], for which the inhibition at 5 µM in experiment [2] was found to be 65%. Further, the “% Inhib. of cellular PLA2 at 5 μM” value in experiment [3] worked out at 97%.
For `Cc1ccc(Cn2c3c(c4cc(Oc5ccc(C(=O)O)o5)ccc42)CCCC3)cc1` [Example 151, 5-[[1,2,3,4-tetrahydro-9-[(4-methylphenyl)methyl]-9H-dibenzo[b,d]pyrrol-6-yl]oxy]-2-furancarboxylic acid], in that order: 72% and 93%.
Consider `Cc1cc(C)c(Cn2c3c(c4cc(Oc5ccc(C(=O)O)o5)ccc42)CCCC3)c(C)c1` [Example 152, 5-[[1,2,3,4-tetrahydro-9-[(2,4,6-trimethylphenyl)methyl]-9H-dibenzo[b,d]pyrrol-6-yl]oxy]-2-furancarboxylic acid], for which the inhibition at 10 µM in experiment [2] (10 μM (footnote a), read-out: % Inhib. of HSF-PLA2 (a: % Inhibition at 10 μM)) stood at 72%. The “% Inhib. of cellular PLA2 at 5 μM” value in experiment [3] was 89%.

Usually pIC50 stands for the IC50 on a negative log10 scale, so that one unit is a factor of ten. The low end stands for a high IC50, the high end for a low IC50.

For the origin of these results see patent US5451600A, “Substituted tetrahydrobenzopyrrolylfuranoic acid derivatives as phospholipase A2 inhibitors” (Hoffmann-La Roche Inc., priority 1994, dated 1995).
